Assay in all cases: growth of human tumour cells (NCI), 48 h
For test [1], the system named is CAKI-1 renal.
The test system of test [2] is HL-60(TB) leukemia.
Test [3] deals with HT29 colon.
Test [4] deals with NCI-H23 lung.
Test [5] has as its system NCI-H522 lung.
Test [6] deals with OVCAR-3 ovarian.
Test [7] concerns SN12C renal.
Test [8] concerns SNB-75 CNS.
The subject of test [9] is TK-10 renal.
Test [10] relates to UACC-62 melanoma.

Several values for one entry are separate records, joined by “and”; a condition that tells them apart may be missing. Equal entries are not always repeated.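 Interpolation was linear, between the two tested concentrations surrounding the appropriate level; five concentrations were tested over 48 hours in 96-well plates. GI50: concentration for 50% inhibition of growth. TGI: total growth inhibition.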 Where only a bound is given, the exact number is not on record here.

Consider `O=C(CC12CC3CC(CC(C3)C1)C2)NCCOCCOCCOCCNC(=O)c1cc2c(o1)C(=O)c1ccccc1C2=O`, for which the GI50 in [1] is 1.93 µM; in [2], 1.4 µM; in test [3], 2.46 µM; in test [4], 0.173 µM; in test [5], 1.54 µM; in test [6], 0.395 µM. For the same molecule, the GI50 is 1.03 µM in test [7], 2.02 µM in [8], 3.14 µM in test [9] and 0.343 µM in test [10]. Further, the TGI in [1] was 5.74 µM; in test [2] it was 4.98 µM; in [3] it was 6.36 µM; in test [4], 1.09 µM; in test [5] it was 3.51 µM; in [6] it was 1.79 µM. Also, the TGI in [7] worked out at 2.26 µM; in test [8], 3.51 µM; in test [9], 5.78 µM; in test [10] it was 1.19 µM.

`C=CCN(CC=C)C(=O)c1cc(C)nc2c1c(=O)n(-c1ccccc1)c(=O)n2CC(O)CN1CCN(c2ncccn2)CC1` (stereo not given): the GI50 in [1], in test [2], in test [3], in [4], in test [5] and in test [6] was over 100 µM in each case. Also, the GI50 in test [7] was over 100 µM; in [8], 29 µM; in [9], over 100 µM; in test [10] it was over 100 µM. Besides, the TGI in test [1], in [2], in [3], in test [4], in test [5] and in test [6] was over 100 µM in each case. The TGI in [7], in test [8], in test [9] and in [10] was over 100 µM in each case.

With `CC1=C2C[C@H]3[C@@H](CC=C4C[C@@H](O)CC[C@@]43C)[C@@H]2CC[C@]12O[C@@H]1C[C@H](C)CN[C@H]1[C@H]2C`, the GI50 in test [1] is 29.2 µM and 20 µM; in test [2], 11.5 µM and 15.7 µM; in test [3] it was 26.2 µM; in test [4], 29 µM and 29.7 µM; in test [5], 13.6 µM and 21.2 µM; in [6], 12.2 µM and 21 µM. Further, the GI50 is 25.6 µM and 18.3 µM in test [7]; > 50 µM and 18.8 µM in test [8]; 7.17 µM and 14.2 µM in test [9]; 24.6 µM and 21.1 µM in test [10]. Further, the TGI is 50 µM and 44.5 µM in test [1]; 50 µM and 55.1 µM in test [2]; 50 µM in test [3]; 50 µM and > 100 µM in test [4]; 44.7 µM and 39.7 µM in [5]; 42.8 µM and 43.2 µM in test [6]. In addition, the TGI in test [7] was 50 µM and 47.4 µM; in [8] it was > 50 µM and 42.7 µM; in test [9] it was 25.9 µM and 34.1 µM; in [10], 50 µM and 43.7 µM.

As to `C1CCN(C2OC3C(COC3N3CCCCC3)OC2OC2CCO[C@@H]2N2CCCCC2)CC1` (stereo not given in full), the TGI is over 100 µM in test [1]; 67.8 µM in [2]; over 100 µM in test [3]; 78.6 µM in [4]; 25.8 µM in test [5]; 89.3 µM in test [6]. Besides, the TGI was over 100 µM in test [7], 46.2 µM in test [8], over 100 µM in [9] and 41.8 µM in test [10].

`c1ccc2c(c1)-c1ccccc1C2N1CC2CCC(CC2)C1`: the TGI in test [1] was over 100 µM; in test [2], 11.2 µM; in [3], 37.6 µM; in test [4], 47.5 µM; in test [5], 28.5 µM; in [6], 40.5 µM. For the same molecule, the TGI in [7] is 55.6 µM; in test [8], 61.4 µM; in test [9] it was over 100 µM; in [10], 44.5 µM.

With `Cc1cccc(Cl)c1NC(=O)/C=C/c1ccccc1`, the TGI in test [1], in test [2], in test [3], in [4], in test [5] and in test [6] was over 100 µM in each case. Moreover, the TGI in [7] was over 100 µM; in test [8], 87.1 µM; in [9], over 100 µM; in [10], over 100 µM.

Regarding `Cc1cccc(C)c1NC(=O)CCc1nnc2s/c(=C\c3ccc(Cl)cc3)c(=O)n12`, the TGI in test [1], in test [2], in test [3], in test [4], in test [5] and in test [6] was over 100 µM throughout. Besides, the TGI in test [7], in test [8], in [9] and in [10] was over 100 µM throughout.

Consider `O=[N+]([O-])c1ccc(N=Nc2c(O)ccc3ccccc23)cc1`, for which the TGI in test [1], in test [2], in test [3], in test [4], in test [5] and in [6] was over 100 µM in each case. Moreover, the TGI in [7], in test [8], in test [9] and in [10] was over 100 µM throughout. In addition, the GI50 in [2] was 38.4 µM and > 100 µM; in test [3] it was 35.8 µM and > 100 µM; in test [4] it was 42.9 µM and > 100 µM; in test [5] it was 35.9 µM; in [8] it was 39.3 µM and > 100 µM; in test [9], 28 µM and > 100 µM. Also, the GI50 in test [10] is 18.3 µM and > 100 µM.

`CC1(C)CC(n2cnc(-c3ccc(F)cc3)c2-c2ccnc(N)n2)CC(C)(C)N1`: the GI50 was over 25 µM in [1]; over 25 µM in [2]; 11.1 µM in test [3]; over 25 µM in test [4]; 17.6 µM in test [5]; over 25 µM in test [6]. The GI50 in test [7] is 17.9 µM; in test [8], over 16.5 µM; in test [9], 16.1 µM; in test [10], over 25 µM. Besides, the TGI in test [1], in test [2], in [3], in [4], in test [5] and in [6] was over 25 µM in each case. Also, the TGI in [7], in [8], in test [9] and in test [10] was over 25 µM in each case.

`Cc1cc(I)cc(CN(C)CCN2CCCC2)c1O`: the GI50 in test [1] was 29.6 µM; in test [2], 10.9 µM; in test [3], 17.3 µM; in [4], 39 µM; in test [5], 19.9 µM; in test [6] it was 38.2 µM. Also, the GI50 in test [7] is 41.3 µM; in [8] it was 17.5 µM; in test [9], 18.6 µM; in test [10] it was 17.2 µM. In addition, the TGI in [1] was over 93.3 µM; in [2] it was 34.2 µM; in test [3] it was 35.5 µM; in test [4], over 100 µM; in test [5] it was 43.4 µM; in [6] it was over 100 µM. In addition, the TGI in test [7] was over 100 µM; in test [8], 47.2 µM; in test [9], 39.3 µM; in [10] it was 33.2 µM.

Regarding `O=C1c2cc([N+](=O)[O-])ccc2-c2cccc(F)c21`, the TGI in [1], in test [2], in test [3], in [4], in test [5] and in test [6] was over 100 µM each time. Further, the TGI in [7], in [8], in test [9] and in [10] was over 100 µM in each case.

Take `COC1OC(C)C(O)CC1OS(=O)(=O)c1ccc(C)cc1` (stereo not given): the TGI in test [1], in test [2], in test [3], in [4], in test [5] and in test [6] was over 100 µM in each case. The TGI in test [7], in test [8], in test [9] and in [10] was over 100 µM in each case.

As for `C=CCC(C(=O)O)c1ccccc1` (stereo not given), the TGI in test [1], in test [2], in test [3], in test [4], in test [5] and in test [6] was over 100 µM throughout. The TGI in [7], in test [8], in test [9] and in test [10] was over 100 µM throughout.

For `CC(=O)N/C(=C\c1cccc([N+](=O)[O-])c1)c1nc2c3c(ccc2[nH]1)C(=O)c1ccccc1C3=O`, the TGI in test [1] is over 100 µM; in test [2], 59.8 µM; in [3] it was over 100 µM; in test [4] it was over 100 µM; in test [5], 99.8 µM; in [6] it was over 100 µM. Moreover, the TGI in test [7], in [8], in test [9] and in test [10] was over 100 µM each time.

Take `CCN(CC)CCNC(=O)c1nn(C)c(=S)[nH]c1=S`: the TGI in test [1], in [2], in [3], in test [4], in test [5] and in test [6] was over 100 µM throughout. The TGI in test [7], in [8], in [9] and in [10] was over 100 µM throughout.

For the molecule `Cc1ccc(-c2nc(N)nc3c2nnn3Cc2cccc(CO[C@H]3CCOC3)n2)o1`, the GI50 in test [1], in test [2], in test [3], in [4], in test [5] and in test [6] was over 100 µM throughout. Also, the GI50 in [7] is over 100 µM; in test [8], 41.5 µM; in [9], over 100 µM; in test [10], over 100 µM. The TGI in test [1], in test [2], in test [3], in test [4], in [5] and in test [6] was over 100 µM each time. Also, the TGI in [7], in test [8], in test [9] and in [10] was over 100 µM throughout.

As to `COC(=O)C(=O)C(C#N)c1ccc(CC#N)cc1` (stereo not given), the TGI in test [1], in test [2], in [3], in [4], in test [5] and in [6] was over 100 µM throughout. In addition, the TGI in test [7], in [8], in test [9] and in test [10] was over 100 µM in each case.

With `O=C1NC(=S)NC(=O)C1=Cc1cccc2cc3ccccc3cc12`, the TGI in test [1] amounted to 4.15 µM; in [2], 5.67 µM; in test [3] it was 3.74 µM; in [4], 4.62 µM; in test [5] it was 4.36 µM; in [6], 3.42 µM. Besides, the TGI in test [7] worked out at 4.9 µM; in test [8] it was 3.7 µM; in test [9], 3.48 µM; in test [10], 3.53 µM.

With `COc1ccc2cc3[n+](cc2c1OC)CCc1cc(O)c(O)cc1-3`, the TGI in test [1], in test [2], in test [3], in [4], in test [5] and in [6] was over 100 µM each time. The TGI in [7], in test [8], in test [9] and in test [10] was over 100 µM throughout.

Consider `COc1ccc(C(=O)OC2C=COC(C)C2OC(=O)c2ccc(OC)cc2)cc1` (stereo not given), for which the TGI was over 100 µM in test [1]; 38 µM in [2]; 62.4 µM in test [3]; 36.1 µM in [4]; 30.6 µM in test [5]; 32.3 µM in [6]. The TGI in test [7] was over 64.5 µM; in [8], 51.7 µM; in [9], over 100 µM; in test [10], 37.7 µM.

As for `Nc1cc(-c2cccc(OC(F)(F)F)c2)nc2ccc(N3CCCC3)cc12`, the GI50 in test [1] was 0.0515 µM and 0.0489 µM and 0.0417 µM; in test [2] it was 0.0303 µM and 0.0249 µM and 0.0248 µM; in test [3] it was 0.0355 µM and 0.0338 µM and 0.0354 µM; in test [4], 0.0716 µM and 0.0803 µM and 0.0609 µM; in [5], 0.0394 µM and 0.0351 µM and 0.0297 µM; in test [6] it was 0.0318 µM and 0.0288 µM and 0.0273 µM. Further, the GI50 was 0.113 µM and 0.0716 µM and 0.0692 µM in [7]; 0.0427 µM and 0.0525 µM and 0.0495 µM in test [8]; 9.57 µM and 13 µM and > 23.5 µM in test [9]; 0.0718 µM and 0.048 µM and 0.0603 µM in test [10]. Moreover, the TGI is over 100 µM in test [1]; 0.0888 µM and 0.0712 µM and 0.32 µM in test [2]; 43.1 µM and > 100 µM in [4]; 0.986 µM in [5]; 19.7 µM and > 100 µM in [7]; 12.2 µM and > 100 µM and > 64.4 µM in [8]. For the same molecule, the TGI in [9] is 34.6 µM and > 100 µM; in test [10] it was 15.8 µM and > 100 µM.

The values above are taken from PubChem BioAssay (NCI).
